Experimental data reported in PubChem BioAssay (NCI).
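48-hour exposure; five concentrations; linearly interpolated endpoints. TGI: concentration producing complete growth inhibition.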

Legend:
Assay in all cases: NCI anticancer screen, dose series, 48 h
786-0 renal = system: 786-0 renal
A549 NSCLC = system: A549 NSCLC
ACHN renal = system: ACHN renal
BT-549 breast = system: BT-549 breast
CAKI-1 renal = system: CAKI-1 renal
CCRF-CEM leukemia = system: CCRF-CEM leukemia
COLO 205 colon = system: COLO 205 colon
DU-145 prostate = system: DU-145 prostate
EKVX NSCLC = system: EKVX NSCLC
HCC-2998 colon = system: HCC-2998 colon
HCT-116 colon = system: HCT-116 colon
HCT-15 colon = system: HCT-15 colon
HL-60(TB) leukemia = system: HL-60(TB) leukemia
HOP-62 NSCLC = system: HOP-62 NSCLC
HOP-92 NSCLC = system: HOP-92 NSCLC
HS 578T breast = system: HS 578T breast
HT29 colon = system: HT29 colon
IGROV1 ovarian = system: IGROV1 ovarian
K-562 leukemia = system: K-562 leukemia
KM12 colon = system: KM12 colon
LOX IMVI melanoma = system: LOX IMVI melanoma
M14 melanoma = system: M14 melanoma
MALME-3M melanoma = system: MALME-3M melanoma
MCF7 breast = system: MCF7 breast
MDA-MB-231 breast = system: MDA-MB-231 breast
MDA-N = system: MDA-N
MOLT-4 leukemia = system: MOLT-4 leukemia
NCI-H226 lung = system: NCI-H226 lung
NCI-H460 lung = system: NCI-H460 lung
NCI-H522 lung = system: NCI-H522 lung
NCI/ADR-RES ovarian = system: NCI/ADR-RES ovarian
OVCAR-3 ovarian = system: OVCAR-3 ovarian
OVCAR-4 ovarian = system: OVCAR-4 ovarian
OVCAR-5 ovarian = system: OVCAR-5 ovarian
OVCAR-8 ovarian = system: OVCAR-8 ovarian
PC-3 prostate = system: PC-3 prostate
RPMI-8226 leukemia = system: RPMI-8226 leukemia
RXF 393 renal = system: RXF 393 renal
SF-268 CNS = system: SF-268 CNS
SF-295 CNS = system: SF-295 CNS
SF-539 CNS = system: SF-539 CNS
SK-MEL-2 melanoma = system: SK-MEL-2 melanoma
SK-MEL-28 melanoma = system: SK-MEL-28 melanoma
SK-MEL-5 melanoma = system: SK-MEL-5 melanoma
SK-OV-3 ovarian = system: SK-OV-3 ovarian
SN12C renal = system: SN12C renal
SNB-19 CNS = system: SNB-19 CNS
SNB-75 CNS = system: SNB-75 CNS
SR leukemia = system: SR leukemia
SW-620 colon = system: SW-620 colon
T-47D breast = system: T-47D breast
TK-10 renal = system: TK-10 renal
UACC-257 melanoma = system: UACC-257 melanoma
UACC-62 melanoma = system: UACC-62 melanoma
UO-31 renal = system: UO-31 renal
A498 renal = system: A498 renal
MDA-MB-435 = system: MDA-MB-435
NCI-H23 lung = system: NCI-H23 lung
U251 CNS = system: U251 CNS

Measured: TGI

NC(=O)c1cnc2sc3ccccc3n2c1=O
not listed: A498 renal | MDA-MB-435 | NCI-H23 lung | U251 CNS
> 100 µM: all other assays above

COc1ccc2nc(-c3ccc(OC(=O)N(C)C)cc3)cn2c1
not listed: BT-549 breast | DU-145 prostate | HCT-15 colon | RPMI-8226 leukemia | RXF 393 renal | SF-539 CNS | UO-31 renal
> 100 µM: all other assays above
